Source: PMC13065040 (PLOS One, 2026)

How the values were obtained:
MMP-2 [1] = molecular target: T1, MMP-2 (Homo sapiens, UniProt P08253); assay: Differential scanning fluorimetry (DSF); assay type: binding; design: Dtm (ΔTm): unit not given here; conditions: for Dtm (ΔTm), average / Tm of MMP-2 with peptide, average: average of replicates; for Dtm (ΔTm) / Tm of MMP-2 with peptide: CTX experiment
T1 construct: ProSpec Bio; Antibodies-Online; Elabscience; Abcam ENZ-769; ABIN7400042; PKSH033450
T1 sequence (P08253 110-660): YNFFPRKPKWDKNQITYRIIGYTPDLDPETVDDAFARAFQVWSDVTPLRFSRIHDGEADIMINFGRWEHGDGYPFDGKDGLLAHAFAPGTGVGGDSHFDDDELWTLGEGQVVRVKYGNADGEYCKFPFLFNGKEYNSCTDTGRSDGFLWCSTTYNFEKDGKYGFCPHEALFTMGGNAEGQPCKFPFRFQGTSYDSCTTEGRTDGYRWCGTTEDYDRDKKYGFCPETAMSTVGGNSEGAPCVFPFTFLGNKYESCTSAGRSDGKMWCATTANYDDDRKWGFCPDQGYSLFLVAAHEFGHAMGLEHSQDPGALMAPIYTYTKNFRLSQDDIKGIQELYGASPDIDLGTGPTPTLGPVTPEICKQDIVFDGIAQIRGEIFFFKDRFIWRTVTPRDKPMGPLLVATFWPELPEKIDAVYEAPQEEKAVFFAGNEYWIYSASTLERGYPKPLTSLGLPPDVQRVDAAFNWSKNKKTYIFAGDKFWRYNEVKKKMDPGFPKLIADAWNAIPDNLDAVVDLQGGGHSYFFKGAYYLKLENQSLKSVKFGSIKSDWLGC
Method: The melting temperatures (Tm) of recombinant MMP-2 and its complexes with peptides were ascertained using BioRad CFX384 Touch real-time PCR (Hercules, CA, USA). The experiments were performed as previously described. The unfolding of the protein was detected using the fluorescent SYPRO-orange dye (Invitrogen, Carlsbad, CA, USA). MMP-2 and prospective ligand peptides were dissolved in 7.1 pH phosphate buffered saline (154 mM NaCl, 5.6 mM Na2PO4, 1.1 mM KH2PO4), and the reaction mixture was made to a final concentration of 1 µM of protein, either 30 µM ([…]) of peptide, and 1000x dilution of the SYPRO-Orange dye stock from the manufacturer. Excitation and emission filters of the dye were set at 450 − 490 nm and 560 − 580 nm, respectively. The temperature for the reaction was held at 25 °C for 5 min, and then a gradient of 25 °C to 95 °C was applied at a rate of 0.3 °C/min, and the fluorescence was recorded. To determine Tm of the protein, the first derivatives of melting curves were plotted using GraphPad Prism software, version 10.0.3.

MMP-2 [2] = molecular target: T1, MMP-2; assay: Surface plasmon resonance (SPR), immobilized MMP-2; assay type: binding; conditions: NTA chip, peptides 500 µM to 3.90 µM, pH 7.4
Method: Surface plasmon resonance (SPR) reagents, plates, and the NTA chip were purchased from GE Healthcare Life Sciences, now Cytiva (Marlborough, MA, USA). Measurements were performed using the Biacore 8000 SPR System (Marlborough, MA. USA). The running buffer used for protein immobilization and peptide binding consisted of 20 mM Tris, 150 mM NaCl, […] and 0.0005% Tween-20, adjusted to pH 7.4. MMP-2 and NRP-1 were immobilized onto the NTA chip at 15 nM and 25 nM concentration, respectively. Peptides were injected over the immobilized proteins using two-fold serial dilutions from 500 µM to 3.90 µM. Three experiments with four replicates of each were performed. The SPR response curves generated from the Biacore Insight Evaluation Software were fitted to a steady-state affinity model to obtain an equilibrium dissociation constant (KD) for each peptide — protein interaction.

GBM cells = conditions: read-out: IC50, inhibition of migration of GBM cells; cited from earlier work
Excerpt: (§1) Ctx (Fig 2) is a 36-residue polypeptide from the scorpion Leiurus quinquestriatus. Ctx contains 8 cysteinyl residues, forming 4 disulfide bridges which help to stabilize its three-dimensional structure. […] However, conflicting data on the effects of Ctx on the glioma-specific chloride channel makes it difficu ...

MMP-2 [3] = conditions: cited from earlier work
Excerpt: as §1, with “... || Given the absence of change in melting temperature, the present result cannot confirm the notion that Ctx binds to the three fibronectin regions in the collagen binding domain [33].” for “...”

Chlorotoxin [Ctx]
Dtm (ΔTm), average (MMP-2 [1]; peptide 30 (µM per method)): 2.368e-15 | Tm of MMP-2 with peptide, average (MMP-2 [1]; peptide 30 (µM per method)): 47.7 | Dtm (ΔTm) (MMP-2 [1]; peptide 30, replicate 1): -0.2 | Tm of MMP-2 with peptide (MMP-2 [1]; peptide 30, replicate 1): 47.5 °C | Dtm (ΔTm) (MMP-2 [1]; peptide 30, replicate 2): 0.1 | Tm of MMP-2 with peptide (MMP-2 [1]; peptide 30, replicate 2): 47.8 °C | Dtm (ΔTm) (MMP-2 [1]; peptide 30, replicate 3): 0.1 | Tm of MMP-2 with peptide (MMP-2 [1]; peptide 30, replicate 3): 47.8 °C | Dtm (ΔTm), average (MMP-2 [1]; peptide 50 (µM per method)): -0.2 | Tm of MMP-2 with peptide, average (MMP-2 [1]; peptide 50 (µM per method)): 47.5 | Dtm (ΔTm) (MMP-2 [1]; peptide 50, replicate 1): -0.2 | Tm of MMP-2 with peptide (MMP-2 [1]; peptide 50, replicate 1): 47.5 °C | Dtm (ΔTm) (MMP-2 [1]; peptide 50, replicate 2): -0.2 | Tm of MMP-2 with peptide (MMP-2 [1]; peptide 50, replicate 2): 47.5 °C | Dtm (ΔTm) (MMP-2 [1]; peptide 50, replicate 3): -0.2 | Tm of MMP-2 with peptide (MMP-2 [1]; peptide 50, replicate 3): 47.5 °C | binding to MMP-2 by SPR (MMP-2 [2]): did not bind | IC50 (GBM cells): 184 nM | effect on the enzymatic activity of MMP-2 (MMP-2 [3]): no statistically significant effect | inhibition of MMP-2 enzymatic activity (MMP-2 [3]): inhibits MMP-2 enzymatic activity
